Results: US20220400679A1, “COMPOSITION FOR ENHANCING PLANT GROWTH” (CH Biotech R&D Co., Ltd., priority 2021, published 2022)

Assays:
[1] = system: Glyphosate-tolerant corn plants (D40SS48); experiment: Example 3 content of TBARS, corn; conditions: 3 days after application, glyphosate vs Control group, FIG. 7
[2] = system: Glyphosate-tolerant corn plants (D40SS48); experiment: Example 3 content of plant hormones, corn; format: in vivo; conditions: with glyphosate treatment (4.87 g/L), 12 days after application, N = 3
Method: (§1) One seed was seeded in one pot.
(§2) 2.8 Content of Plant Hormones: Twelve (12) days after the application of reagents, 1 g of fresh sample leaf was ground in liquid nitrogen and then mixed with 10 g extraction solution (80% (v/v) methanol, 1% (v/v) acetic acid) by a vortex mixer. The sample was then sonicated for 1 hour and centrifuged at 2,500 rpm for 10 minutes. The supernatant was collected, concentrated, dissolved in 1 ml of 100% methanol, and then analyzed for content of plant hormones with a tandem quadrupole mass spectrometer (Waters® Xevo® TQ MS, Waters Corporation, Milford, Mass., USA) and ACQUITY UPLC System (Waters Corporation, Milford, Mass., USA).

[3] = system: Glyphosate-tolerant soybean plants (S29RY05); experiment: Example 3 content of TBARS, soybean; conditions: 3 days after application, glyphosate vs Control group, FIG. 14
[4] = system: Glyphosate-tolerant soybean plants (S29RY05); experiment: Example 2 different concentrations of components with glyphosate: shoot dry weight, soybean; format: in vivo; conditions: glyphosate 4.87 g/L vs Control group (p<0.01), FIG. 4A
Method: (§3) 2.1 Shoot dry weight: Seven (7) days after the application of reagents, leaves and stems of each plant were dried at 50° C. overnight, and then the dry weight was measured.
as §1
(§4) Methods for analyzing shoot dry weight and statistics are the same as described in Example 1.

[5] = system: glutamine synthetase (GS) of soybean plants; experiment: Example 3 activity of glutamine synthetase, soybean; format: in vivo; conditions: 3 days after application, glyphosate vs Control group, FIG. 16
Method: as §1
(§5) The leaf powder and 1 ml of extraction solution, containing 10 mM Tris-HCl (pH7.6), 1 mM MgCl2, 1 mM EDTA, and 10 mM 2-Mercaptoethanol, were centrifuged at 4° C., 13,000 rcf for 30 minutes. […] The sample was centrifuged at room temperature, 3,000 rcf. Absorbance at an O.D. of 540 nm (A540) of the supernatant was measured.

[6] = system: Glyphosate-tolerant soybean plants (S29RY05); experiment: Example 3 content of plant hormones, soybean; format: in vivo; conditions: with glyphosate treatment (4.87 g/L), 12 days after application, N = 3
Method: as §1, §2

[7] = system: nitrate reductase (NR) of corn plants; experiment: Example 3 activity of nitrate reductase, corn; format: in vivo; conditions: 3 days after application, glyphosate vs Control group, FIG. 8
Method: as §1
(§6) One (1) ml of potassium phosphate buffer (100 mM, pH7.4) containing 7.5 mM cysteine, 1 mM EDTA, and 1.5% casein was added to the sample, mixed with the sample, and then the mixed sample was centrifuged at 4° C., 13,000 relative centrifugal field (rcf) for 30 minutes. […] The sample was centrifuged at room temperature, 3,000 rcf. The supernatant was transferred to a new tube and mixed with 0.5 mL sulphanilamide (5.8 mM) and 0.5 mL N-(1-naphthyl)ethylenediamine (0.8 mM). The mixture was incubated for 30 minutes. […] KNO2 is used as a NO2^− concentration standard.

[8] = system: Glyphosate-tolerant soybean plants (S29RY05); experiment: Example 3 electrolyte leakage, soybean; format: in vivo; conditions: 3 days after application, glyphosate vs Control group, FIG. 13
Method: as §1
(§7) Six (6) leaf disks (7.5 mm diameter) were cut from the sample leaves and immersed in 10 ml of deionized water at 25° C. for 24 hours. After that, the first electrolytic conductivity (EC1) of the sample solution was analyzed with an electrical conductivity meter (SevenCompact™ 5230 Conductivity Meter, Mettler-Toledo, Columbus, Ohio, USA). The sample leaf disks were then kept in the deionized water at 95° C. for 2 hours. After the temperature of the sample solution decreased to 25° C., the second electrolytic conductivity (EC2) of the sample solution was analyzed with the electrical conductivity meter again. Ten (10) milliliters of deionized water without any sample were used as control. Electrolyte leakage of the sample leaves was analyzed with the following equation.
(§8) Electrolyte leakage (%)=(Sample EC1−Control EC1)×100/(Sample EC2−Control EC2)

[9] = system: Glyphosate-tolerant soybean plants (S29RY05); experiment: Example 1 synergistic test with glyphosate: shoot dry weight, soybean; format: in vivo; conditions: 7 days after application, glyphosate 4.87 g/L vs Control group (p<0.01), FIG. 2A
Method: as §1, §3
(§9) 2.2 Statistics: Unpaired Student's t-test was applied to assess numerical data statistical significance. Statistical significance was set at p-value less than 0.05.

[10] = system: glutamine synthetase (GS) of corn plants; experiment: Example 3 activity of glutamine synthetase, corn; format: in vivo; conditions: 3 days after application, glyphosate vs Control group, FIG. 9
Method: as §1, §5

[11] = system: glutamate synthase (GOGAT) of corn plants; experiment: Example 3 activity of glutamate synthase, corn; format: in vivo; conditions: 3 days after application, glyphosate vs Control group, FIG. 10
Method: as §1
(§10) The leaf powder and 1 ml of extraction solution, containing 10 mM Tris-HCl (pH7.6), 1 mM MgCl2, 1 mM EDTA, and 10 mM 2-Mercaptoethanol, were centrifuged at 4° C., 13,000 rcf for 30 minutes. Zero-point-one-five (0.15) ml of the supernatant was mixed with the reaction solution containing 0.2 mL of 20 mM L-glutamine, 0.25 mL of 2 mM 2-oxoglutarate, 0.05 mL of 10 mM KCl, 1 mL of 25 mM Tris-HCl (pH7.6), and 0.1 mL 3 mM NADH to initiate the reaction. The GOGAT activity is determined by NADH reduction through measuring fluorescence intensity at excitation/emission wavelengths of 340/445 nm. NADH concentration is determined by reference to a NADH standard curve.

[12] = system: Glyphosate-tolerant corn plants (D40SS48); experiment: Example 2 different concentrations of components with glyphosate: shoot dry weight, corn; format: in vivo; conditions: glyphosate 4.87 g/L vs Control group (p<0.01), FIG. 3A
Method: as §3, §1, §4

[13] = system: Glyphosate-tolerant soybean plants (S29RY05); experiment: Example 3 analyses of leaves and roots (growth) after glyphosate treatment, soybean; format: in vivo; conditions: 7 days after application, glyphosate 4.87 g/L
Method: as §1
(§11) 2.1 Analyses of Leaves: Seven (7) days after the application of reagents, plant height was measured, and leaves were collected. The leaf area of the fourth leaf of each corn plant and the total leaf area of each soybean plant were measured by a leaf analyzer (WinFOLIA™ Regent Instruments Inc., Québec, Canada). Leaves and stems of each plant were dried at 50° C. overnight, and then the dry weight was measured.
(§12) 2.2 Analyses of Roots: Seven (7) days after the application of reagents, length of plant root was measured by a root analyzer (WinRHIZO™, Regent Instruments Inc., Québec, Canada). In addition, roots of each plant were dried at 50° C. overnight, and then the dry weight was measured.

[14] = system: Glyphosate-tolerant corn plants (D40SS48); experiment: Example 3 analyses of leaves and roots (growth) after glyphosate treatment, corn; format: in vivo; conditions: 7 days after application, glyphosate 4.87 g/L, N = 10
Method: as §1, §11, §12

[15] = system: nitrate reductase (NR) of soybean plants; experiment: Example 3 activity of nitrate reductase, soybean; format: in vivo; conditions: 3 days after application, glyphosate vs Control group, FIG. 15
Method: as §1, §6

[16] = system: Glyphosate-tolerant corn plants (D40SS48); experiment: Example 1 synergistic test with glyphosate: shoot dry weight, corn; format: in vivo; conditions: 7 days after application, glyphosate 4.87 g/L vs Control group (p<0.01), FIG. 1A
Method: as §1, §3, §9

[17] = system: glutamate synthase (GOGAT) of soybean plants; experiment: Example 3 activity of glutamate synthase, soybean; format: in vivo; conditions: 3 days after application, glyphosate vs Control group, FIG. 17
Method: as §1, §10

[18] = system: Glyphosate-tolerant corn plants (D40SS48); experiment: Example 3 electrolyte leakage, corn; format: in vivo; conditions: 3 days after application, glyphosate vs Control group, FIG. 6
Method: as §1, §7, §8

## O=C(O)CNCP(=O)(O)O [Glyphosate only, glyphosate]
[1]
  TBARS level: increase in TBARS level
[2]
  Phytohormone content: ABA: 2742 ng/g FW
  Phytohormone content: Cytokinin (Zeatin+iPAs): 0.75 ng/g FW
  Phytohormone content: GA1: 625 ng/g FW
  Phytohormone content: IAA: 45 ng/g FW
[3]
  TBARS level: increase in TBARS level
[4]
  shoot dry weight: significant decrease in shoot dry weight
[5]
  activities of glutamine synthetase (GS): decrease in activities
[6]
  Phytohormone content: ABA: 1189 ng/g FW
  Phytohormone content: Cytokinin (Zeatin+iPAs): 0.68 ng/g FW
  Phytohormone content: GA1: 832 ng/g FW
  Phytohormone content: IAA: 28 ng/g FW
[7]
  activities of nitrate reductase (NR): decrease in activities
[8]
  electrolyte leakage: increase in electrolyte leakage
[9]
  shoot dry weight: significant decrease in shoot dry weight
[10]
  activities of glutamine synthetase (GS): decrease in activities
[11]
  activities of glutamate synthase (GOGAT): decrease in activities
[12]
  shoot dry weight: significant decrease in shoot dry weight
[13]; FIG. 12
  leaf curling symptoms (phenotype observation of soybean leaves): causes leaf curling symptoms
  necrotic areas (phenotype observation of soybean leaves): necrotic areas
[13]; N = 10
  Root dry weight: 0.28 g
  Shoot fresh weight: 2.46 g
  The unifoliate leaf length: 4.54 cm
  Total leaf area: 55.96 cm^2
  Total root length: 2047.40 cm
[14]
  Plant height: 42.70 cm
  Root dry weight: 0.35 g
  The 4th leaf area: 89.45 cm^2
  Total root length: 1405.69 cm
  shoot dry weight: 1.30 g
[15]
  activities of nitrate reductase (NR): decrease in activities
[16]
  shoot dry weight: significant decrease in shoot dry weight
[17]
  activities of glutamate synthase (GOGAT): decrease in activities
[18]
  electrolyte leakage: increase in electrolyte leakage
